Tests used:
Assay type in all cases: cell-based, human
[1] = system: MCF7 (breast carcinoma) cell line; assay: DTP 3-cell line single-dose antineoplastic pre-screen (sulforhodamine B); settings: 1.00 E-04 Molar, 48 hours, growth relative to untreated control cells; negative = cell kill
Text: (§1) For the past 10 years, the Developmental Therapeutics Program (DTP) of the National Cancer Institute (NCI) has used an in vitro model consisting of 60 human tumor cell lines as the primary anticancer screen (see, J. Natl. Cancer Inst., 83:757-766, (1991)). […] In view of this, the DTP now uses a 3-cell line panel consisting of the MCF7(breast carcinoma) cell line, the NCI-H460 (lung carcinoma) cell line, and the SF-268 (CNS glioma) cell line as its primary anticancer (antineoplastic) assay. This 3-cell line, single-dose assay has been in use by DTP for several years for the evaluation of combinatorial libraries and has proven to be an effective pre-screen for compounds with antineoplastic activity.
(§2) In the DTP protocol, each cell line is inoculated and preincubated on a microtiter plate. Test agents are then added at a single concentration and the culture incubated for 48 hours. End-point determination are made with sulforhodamine B, a protein-binding dye. Results for each test agent are reported as the percent of growth of the treated cells normalized against the growth of the corresponding untreated control cells, i.e., a reported value of +100% refers to cell growth equivalent to that of the corresponding untreated control cells. […] Compounds which reduce the growth of any one of the cell lines to a value of +32% or less (negative numbers indicate cell kill) are generally considered to be sufficiently “active” to be selected for further evaluation by NCI in a full panel of 60 tumor cell lines over a 5-log dose range.
(§3) Two poly((aminofunctional alkoxy)-alkylsiloxane) compounds were tested for antineoplastic activity in the DTP screen. The two compounds (linear poly((aminofunctional alkoxy)-alkylsiloxanes) 5 and 3) were prepared according to the procedures described in Examples 2 and 5 above, respectively. […] This compound includes 1,3-N,N-dimethylamino-2-propoxy groups.

[2] = system: NCI-H460 (lung carcinoma) cell line; assay: as above; settings: 1.00 E-04 Molar, 48 hours, growth relative to untreated control cells; negative = cell kill
Text: as §1, §2, §3

[3] = system: SF-268 (CNS glioma) cell line; assay: as above; settings: 1.00 E-04 Molar, 48 hours, growth relative to untreated control cells; negative = cell kill
Text: as §1, §2, §3

[4] = system: 3-cell line panel MCF7, NCI-H460, SF-268; assay: DTP screen, overall activity call over the 3-cell line panel; design: key to Activity: Active: Compounds which reduce the growth of any one of the cell lines to a value of +32% or less (negative numbers indicate cell kill) are generally considered to be sufficiently “active”; settings: for Activity: 1.00 E-04 Molar; for antineoplastic activity in the DTP screen: three test cell lines
Text: as §1, §2, §3

CN(C)CC(CN(C)C)O[Si](C)(O[Si](C)(C)C)O[Si](C)(OC(CN(C)C)CN(C)C)O[Si](C)(C)C (stereo not shown) [Compound 5, bis-(trimethylsiloxy)-1,3-dimethyl, 1,3-(1,3-(N,N-dimethylamino)-2-propoxy)siloxane]
Growth Percentages (Breast) MCF7 [1]: −5% | Growth Percentages (Lung) NCI-H460 [2]: −16% | Growth Percentages (CNS) SF-268 [3]: −24% | Activity [4]: Active | antineoplastic activity in the DTP screen [4]: showed antineoplastic activity against all three test cell lines

C[Si](C)(C)O[Si](C)(OCCCN)O[Si](C)(OCCCN)O[Si](C)(C)C (stereo not shown) [Compound 3, bis-(trimethylsiloxy)-1,3-dimethyl-1,3-(3-amino-1-propoxy)siloxane]
Activity [4]: Inactive | antineoplastic activity in the DTP screen [4]: inactive
